Source: patent US8604016B2, “Heterocyclic inhibitors of glutaminase” (Calithera Biosciences Inc., priority 2011, dated 2013)

Tests used:
[1] = target: T1, recombinant form of Glutaminase 1 (GAC) (Homo sapiens, UniProt O94925); assay: Recombinant Enzyme Assay (GAC coupled to GDH, NADH absorbance, no preincubation); assay type: biochemical; conditions: no preincubation; read-out: GAC Delta N2 IC50 no preinc
Summary of the method: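 GAC (4 nM) in Tris-HCl pH 8.0 with 150 mM K2HPO4, EDTA, BSA, DTT, plus 4 units/ml GDH and 4 mM ADP, without preincubation. Absorbance at 340 nm was read kinetically for 15 min at 20° C. Slopes (mAU/min) were compared with DMSO-only and control-compound wells on the same plate.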

[2] = target: T1, recombinant form of Glutaminase 1 (GAC); assay: Recombinant Enzyme Assay - Time Dependence (60 minutes enzyme/compound preincubation); assay type: biochemical
Protocol: The enzyme/compound mix was sealed with sealing foil (USA Scientific) and allowed to incubate, with mild agitation, for 60 minutes at 20° C. Enzymatic reaction was started with the addition of 50 μL of substrate solution (50 mM Tris-HCl pH 8.0, 0.2 mM EDTA, 150 mM K2HPO4, 0.1 mg/ml BSA, 1 mM DTT, 20 mM L-glutamine, 2 mM NAD^+, and 10 ppm antifoam) and read in a Molecular Devices M5 plate reader at 20° C. The plate reader was configured to read absorbance (λ=340 nm) in kinetic mode for 15 minutes. Data was recorded as milli-absorbance units per minute and slopes were compared to a control compound and a DMSO-only control on the same plate. Compounds with slopes less than the DMSO control were considered inhibitors and plate variability was assessed using the control compound.

[3] = Caco-2 Permeability Assay (bidirectional); assay type: in vitro ADME; conditions: human; for recovery at 120 min, 1 μM / Papp A→B at 120 min, 1 μM / Papp B→A at 120 min, 1 μM: pH 7.4; for efflux ratio at 120 min, 1 µM / Papp A→B at 120 min, 1 μM / Papp B→A at 120 min, 1 μM / permeability class (Low/High absorption potential) at 120 min, 1 µM: Caco-2; for efflux ratio at 120 min, 1 µM: (Papp B→A)/(Papp A→B); for Papp A→B at 120 min, 1 μM: Direction A→B; for Papp A→B at 120 min, 1 μM / Papp B→A at 120 min, 1 μM: unit not given (thresholds in 10^−6 cm/s); for Papp B→A at 120 min, 1 μM: Direction B→A; for permeability class (Low/High absorption potential) at 120 min, 1 µM: read-out: Permeability Classification
Description: (§1) Caco-2 cells are commonly used in a confluent monolayer on a cell culture insert filter. When cultured in this format and under specific conditions, the cells become differentiated and polarized such that their phenotype, morphologically and functionally resembles the enterocytes lining the small intestine. The cell monolayer provides a physical and biochemical barrier to the passage of small molecules, and is widely used across the pharmaceutical industry as an in vitro model of the human small intestinal mucosa to predict the absorption of orally administered drugs (Hidalgo et al., Gastroenterology, 1989; Artursson, J. Pharm. Sci., 1990). The correlation between the in vitro apparent permeability (P ? app) across Caco-2 monolayers and the in vivo absorption is well established (Artursson et al., Biochem. Biophys. Res. Comm., 1991).
(§2) The present assay was used to determine the bidirectional permeability of the compounds of the invention through Caco-2 cell monolayers. Caco-2 cells were grown in confluent monolayers where the media of both the apical (A) and basolateral (B) sides were at pH 7.4. Compounds were dosed at 1 μM in the presence of 200 μM Lucifer Yellow, on the apical side (A→B) or the basolateral side (B→A) for assessment, in duplicate.
(§3) The absorption potential of compounds were classified as either Low (P-app <1×10^−6 cm/s) or High (P-app >1×10^−6 cm/s).

Caco-2 cell monolayers = assay: Caco-2 Permeability Assay (bidirectional); assay type: in vitro ADME
Description: as §1, §2, §3

[4] = read-out: GAC Delta N2 IC50 60 min preinc
[5] = read-out: GAC Delta N2 IC50 60 min

| Structure (SMILES) | IC50 [1] [µM] | IC50 [2, 4] [µM] | recovery at 120 min, 1 μM ([3]; Caco-2, pH 7.4, Direction A→B) [%] | recovery at 120 min, 1 μM ([3]; Caco-2, pH 7.4, Direction B→A) [%] | efflux ratio at 120 min, 1 µM [3] | Papp A→B at 120 min, 1 μM [3] [×10⁻⁶ cm/s] | Papp B→A at 120 min, 1 μM [3] [×10⁻⁶ cm/s] | permeability class (Low/High absorption potential) at 120 min, 1 µM [3] [×10⁻⁶ cm/s] | IC50 [2, 5] [µM] | Significant Efflux (Caco-2 cell monolayers) |
| --- | --- | --- | --- | --- | --- | --- | --- | --- | --- | --- |
| O=C(Nc1nnc(CCCCc2nnc(NC(=O)[C@@H](O)c3ccccc3)s2)s1)[C@@H](O)c1ccccc1 [Compound 92] | 0.38 | 0.14 | – | – | – | – | – | – | – | – |
| O=C(Cc1cccc(Br)c1)Nc1nnc(CCSCCc2nnc(NC(=O)Cc3cccc(Br)c3)s2)s1 [Compound 270] | 7.4 | > 5 | – | – | – | – | – | – | – | – |
| CC(C)(C)OC(=O)N1CCN(Cc2cccc(CC(=O)Nc3nnc(CCSCc4nnc(NC(=O)Cc5cccc(CN6CCN(C(=O)OC(C)(C)C)CC6)c5)s4)s3)c2)CC1 [Compound 275] | 2.2 | 0.15 | – | – | – | – | – | – | – | – |
| O=C(Nc1nnc(CCCCc2nnc(NC(=O)C(O)c3cccc(Br)c3)s2)s1)C(O)c1cccc(Br)c1 (stereo not drawn) [Compound 288] | 0.67 | 0.04 | – | – | – | – | – | – | – | – |
| O=C(Nc1nnc(CCCCc2nnc(NC(=O)C(O)c3cccc(Cl)c3)s2)s1)C(O)c1cccc(Cl)c1 (stereo not drawn) [Compound 306] | 0.52 | 0.031 | – | – | – | – | – | – | – | – |
| O=C(Cc1ccccc1)Nc1ccc(CCCCc2nnc(NC(=O)C(O)c3cccc(Cl)c3)s2)nn1 (stereo not drawn) [Compound 318] | – | – | 73 | 82 | 18 | 2.45 | 44.5 | > 1 | – | Yes (efflux ratios being significant when greater than or equal to 3 when the Papp (B→A) was greater than or equal to 1×10^−6 cm/s) |
| CC(C)(C)OC(=O)NCc1cccc(CC(=O)Nc2nnc(CCCCc3ccc(NC(=O)Cc4ccccc4)nn3)s2)c1 [Compound 339] | – | – | 73 | 80 | – | 2.39 | 41.6 | > 1 | – | Yes (efflux ratios being significant when greater than or equal to 3 when the Papp (B→A) was greater than or equal to 1×10^−6 cm/s) |
| O=C(Cc1ccccc1)Nc1ccc(CCCCc2nnc(NC(=O)Cc3ccccn3)s2)nn1 [Compound 354] | – | – | 117 | 101 | – | 1.38 | 45 | > 1 | – | Yes (efflux ratios being significant when greater than or equal to 3 when the Papp (B→A) was greater than or equal to 1×10^−6 cm/s) |
| CC(C(=O)Nc1ccc(CCCCc2nnc(NC(=O)Cc3cccc(CNC(=O)OC(C)(C)C)c3)s2)nn1)c1ccccc1 (stereo not drawn) [Compound 436] | – | – | 44 | 57 | 6.6 | 3.75 | 24.7 | > 1 | – | Yes (efflux ratios being significant when greater than or equal to 3 when the Papp (B→A) was greater than or equal to 1×10^−6 cm/s) |
| O=C(Cc1ccccc1)Nc1nnc(CCCCc2nnc(NC(=O)C(O)c3cccc(Cl)c3)s2)s1 (stereo not drawn) [Compound 527] | 0.13 | 0.024 | – | – | – | – | – | – | – | – |
| O=C(Cc1ccccc1Cl)Nc1ccc(CCCCc2nnc(NC(=O)Cc3ccccc3F)s2)nn1 [Compound 533] | – | – | 41 | 52 | 7.6 | 4.94 | 37.5 | > 1 | – | Yes (efflux ratios being significant when greater than or equal to 3 when the Papp (B→A) was greater than or equal to 1×10^−6 cm/s) |
| CC(C(=O)Nc1nnc(CCCCc2ccc(NC(=O)Cc3cccc(CNC(=O)CC(C)(O)C(F)(F)F)c3)nn2)s1)c1ccccc1 (stereo not drawn) [Compound 607] | – | – | – | – | – | – | – | – | 0.007 | – |
| CCCC(=O)OCN(C(=O)Cc1ccccc1)c1nnc(CCCCc2ccc(NC(=O)Cc3cccc(OC(F)(F)F)c3)nn2)s1 [Compound 629] | – | – | – | – | – | – | – | – | > 20 | – |

Now from value to molecule, other results behind:

| IC50 [1] [µM] | IC50 [2, 4] [µM] | recovery at 120 min, 1 μM ([3]; Caco-2, pH 7.4, Direction A→B) [%] | recovery at 120 min, 1 μM ([3]; Caco-2, pH 7.4, Direction B→A) [%] | efflux ratio at 120 min, 1 µM [3] | Papp A→B at 120 min, 1 μM [3] [×10⁻⁶ cm/s] | Papp B→A at 120 min, 1 μM [3] [×10⁻⁶ cm/s] | permeability class (Low/High absorption potential) at 120 min, 1 µM [3] [×10⁻⁶ cm/s] | IC50 [2, 5] [µM] | Structure (SMILES) | Significant Efflux (Caco-2 cell monolayers) |
| --- | --- | --- | --- | --- | --- | --- | --- | --- | --- | --- |
| – | – | – | – | – | – | – | – | 0.019 | CC(C(=O)Nc1ccc(CCCCc2nnc(NC(=O)C(C)c3ccccc3)s2)nn1)c1ccccc1 (stereo not drawn) [Compound 613] | – |
| – | – | 65 | 76 | 6 | 8.23 | 49.5 | > 1 | – | CC(C(=O)Nc1nnc(CCCCc2ccc(NC(=O)Cc3ccccc3)nn2)s1)c1ccccc1 (stereo not drawn) [Compound 616] | Yes (efflux ratios being significant when greater than or equal to 3 when the Papp (B→A) was greater than or equal to 1×10^−6 cm/s) |
| – | – | – | – | – | – | – | – | 0.005 | CC(NC(=O)OC(C)(C)C)c1cc(CC(=O)Nc2nnc(CCCCc3ccc(NC(=O)Cc4ccccc4)nn3)s2)ccc1F (stereo not drawn) [Compound 653] | – |
| – | – | – | – | – | – | – | – | 0.005 | CC(NC(=O)OC(C)(C)C)c1cc(CC(=O)Nc2ccc(CCCCc3nnc(NC(=O)Cc4ccccc4)s3)nn2)ccc1F (stereo not drawn) [Compound 654] | – |
| – | – | 56 | 68 | 3.9 | 0.61 | 2.37 | < 1 | – | O=C(Cc1cccc(OC(F)(F)F)c1)Nc1ccc(CCCCc2nnc(NC(=O)Cc3cccc(OC(F)(F)F)c3)s2)nn1 [Compound 660] | Yes (efflux ratios being significant when greater than or equal to 3 when the Papp (B→A) was greater than or equal to 1×10^−6 cm/s) |
| – | – | 34 | 42 | 2.6 | 7.59 | 19.6 | > 1 | – | O=C(Cc1cccc(OC(F)(F)F)c1)Nc1ccc(CCCCc2nnc(NC(=O)Cc3cccc(F)c3)s2)nn1 [Compound 679] | No (efflux ratios being significant when greater than or equal to 3 when the Papp (B→A) was greater than or equal to 1×10^−6 cm/s) |
| – | – | 60 | 67 | 6 | 8.52 | 51 | > 1 | – | O=C(Cc1cccc(OC(F)(F)F)c1)Nc1ccc(CCCCc2nnc(NC(=O)[C@H](O)c3ccccc3)s2)nn1 [Compound 705] | Yes (efflux ratios being significant when greater than or equal to 3 when the Papp (B→A) was greater than or equal to 1×10^−6 cm/s) |
